In ChEMBL document CHEMBL2417448, “Cytotoxic triterpenoids from Lysimachia parvifolia” (Eur J Med Chem, 2013):

How the values were obtained:
Assay type in all cases: functional, cell-based
[1] = test system: HepG2; assay: Cytotoxicity against human HepG2 cells after 24 hrs by MTT assay; details: HepG2, 24 h
[2] = test system: SGC-7901; assay: Cytotoxicity against human SGC7901 cells after 24 hrs by MTT assay; details: SGC-7901, 24 h
[3] = test system: HL-60; assay: Cytotoxicity against human HL60 cells after 24 hrs by MTT assay; details: HL-60, 24 h
[4] = test system: A549; assay: Cytotoxicity against human A549 cells after 24 hrs by MTT assay; details: A549, 24 h
[5] = test system: U-266; assay: Cytotoxicity against human U266 cells after 24 hrs by MTT assay; details: U-266, 24 h
[6] = Cytotoxicity against human Bel7404 cells after 24 hrs by MTT assay; details: BEL-7404, 24 h

SMILES | IC50 [1] [µM] | IC50 [2] [µM] | IC50 [3] [µM] | IC50 [4] [µM] | IC50 [5] [µM] | IC50 [6] [µM]
CC1(C)C[C@@H]2[C@]3(CO[C@@]24CC[C@@H]2[C@@]5(C)CCC(=O)[C@@](C)(CO)[C@@H]5CC[C@@]2(C)[C@]4(C)CC3=O)[C@@H](O)C1 | > 100 | > 100 | > 100 | > 100 | > 100 | > 100
CC1(C)CC[C@]23CO[C@@]4(CC[C@@H]5[C@@]6(C)CC[C@H](O[C@@H]7OC[C@H](O[C@@H]8O[C@H](CO)[C@@H](O)[C@H](O)[C@H]8O)[C@H](O)[C@H]7O)[C@@](C)(CO)[C@@H]6CC[C@@]5(C)[C@]4(C)CC2=O)[C@@H]3C1 [ANAGALLIGENONE-3-O-[BETA-D-GLUCOPYRANOSYL(1->4)-ALPHA-L-ARABINOPYRANOSIDE] | 16.2 | 19 | 16.3 | 14.6 | 13.9 | 17.3
CC1(C)CC[C@]23CO[C@@]4(CC[C@@H]5[C@@]6(C)CC[C@H](O[C@@H]7OC[C@H](O)[C@H](O)[C@H]7O)[C@@](C)(CO)[C@@H]6CC[C@@]5(C)[C@]4(C)CC2=O)[C@@H]3C1 [ANAGALLIGENONE-3-O-ALPHA-L-ARABINOPYRANOSIDE] | 55.4 | > 100 | > 100 | 85.3 | 94.8 | 75.5
CC1(C)CC[C@]23CO[C@@]4(CC[C@@H]5[C@@]6(C)CC[C@H](O[C@@H]7OC[C@H](O[C@@H]8O[C@H](CO)[C@@H](O)[C@H](O)[C@H]8O[C@@H]8OC[C@@H](O)[C@H](O)[C@H]8O)[C@H](O)[C@H]7O)[C@@](C)(CO)[C@@H]6CC[C@@]5(C)[C@]4(C)CC2=O)[C@@H]3C1 [ANAGALLIGENONE-3-O-[BETA-D-XYLOPYRANOSYL(1->2)-BETA-D-GLUCOPYRANOSYL(1->4)-ALPHA-L-ARABINOPYRANOSIDE]] | 8.87 | 9.24 | 10.3 | 10.9 | 10.4 | 9.14
CC(=O)O[C@H]1CC(C)(C)C[C@@H]2[C@]13CO[C@@]21CC[C@@H]2[C@@]4(C)CC[C@H](O[C@@H]5OC[C@H](O[C@@H]6O[C@H](CO)[C@@H](O)[C@H](O)[C@H]6O)[C@H](O)[C@H]5O[C@@H]5O[C@H](CO)[C@@H](O)[C@H](O)[C@H]5O[C@@H]5OC[C@@H](O)[C@H](O)[C@H]5O)C(C)(C)[C@@H]4CC[C@@]2(C)[C@]1(C)C[C@H]3O | 4.92 | 7.69 | 6.8 | 5.28 | 8.83 | 5.88
CC1(C)C[C@@H]2[C@]3(CO[C@@]24CC[C@@H]2[C@@]5(C)CC[C@H](O)[C@@](C)(CO)[C@@H]5CC[C@@]2(C)[C@]4(C)CC3=O)[C@@H](O)C1 | > 100 | > 100 | > 100 | > 100 | > 100 | > 100
